These results are taken from patent EP1169336B1, “ENT-STEROIDS AS SELECTIVELY ACTIVE ESTROGENS” (Schering Aktiengesellschaft, priority 1999, dated 2000).

The conditions of experiment [1]: Endocrinology 63, 464 (1958); cited from earlier work.
For experiment [2] the following is noted: enantio form; J. Med. Chem. 10, 199-204 1967; cited from earlier work.
Experiment [3] deals with hERβ. It is filed as binding, human. Conditions: for ERβ/ ER: quotient of RBA to hERβ and hER.
Experiment [4] concerns the target human estrogen receptor α (ERα) (Homo sapiens, UniProt P03372). Particulars: cited from earlier work.
A further experiment deals with Rat uterus ER. Briefly: Estrogen receptor binding study, competition with 3H-estradiol, rat uterus cytosol. Particulars: 3H-estradiol as ligand, estradiol = 100.
In another experiment the test system is Rat prost. ER. Briefly: Estrogen receptor binding study, competition with 3H-estradiol, rat prostate cytosol.
The test system of experiment [5] is hERβ. Particulars: cited from earlier work.
For experiment [6] the following is noted: reported, source not given; cited from earlier work.

Where two headings read alike, the source gives them in different places.

Sequence of human estrogen receptor α (ERα) (P03372 whole entry): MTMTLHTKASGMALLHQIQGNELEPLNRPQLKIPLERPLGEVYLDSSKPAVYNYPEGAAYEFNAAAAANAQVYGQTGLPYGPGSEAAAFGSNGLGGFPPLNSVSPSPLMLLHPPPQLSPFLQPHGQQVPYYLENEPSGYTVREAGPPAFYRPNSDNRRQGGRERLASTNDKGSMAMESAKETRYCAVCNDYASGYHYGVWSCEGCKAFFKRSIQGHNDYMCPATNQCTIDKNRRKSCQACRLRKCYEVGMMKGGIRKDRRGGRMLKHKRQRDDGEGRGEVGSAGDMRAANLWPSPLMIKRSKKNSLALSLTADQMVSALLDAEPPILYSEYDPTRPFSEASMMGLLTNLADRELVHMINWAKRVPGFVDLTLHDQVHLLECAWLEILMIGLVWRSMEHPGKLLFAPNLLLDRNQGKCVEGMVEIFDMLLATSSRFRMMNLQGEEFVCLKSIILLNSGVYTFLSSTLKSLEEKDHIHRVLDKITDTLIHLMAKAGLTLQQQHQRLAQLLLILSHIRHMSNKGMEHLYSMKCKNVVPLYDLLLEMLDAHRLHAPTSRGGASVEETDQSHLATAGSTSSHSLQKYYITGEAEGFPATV

For `CC[C@@]12CC[C@@H]3[C@H](CCC4=CC(=O)CC[C@H]43)[C@H]1CC[C@]2(O)C#CCl` (single isomer, unassigned) [ent-17α-chloroethinyl-17β-hydroxy-18a-homo-estr-4-en-3-one], in experiment [1], the “Clauberg Test” value is “ineffective”.

`C#C[C@@]1(O)CC[C@@H]2[C@H]3CCc4cc(O)ccc4[C@@H]3CC[C@]21C` [17α-Ethinylestradiol]: the “estrogeneity, relative to estrone” value in experiment [2] is on record as “less than 5%”.

`C[C@]12CC[C@H]3[C@@H](CC=C4C[C@@H](O)CC[C@@]43C)[C@@H]1CC[C@@H]2O` [5-Andro-stene-diol, 5-Androstenediol]: in the experiment with hERβ [3], the “ERβ/ ER” value came out at 3. For the same compound, in experiment [4], the “hER RBA*” value is 6. Further, in the experiment on Rat uterus ER, the “Rat uterus ER(RBA)” value worked out at 0.1. Further, in the experiment on Rat prost. ER (3H-estradiol as ligand, prostate cytosol, estradiol = 100), the “Rat prost. ER(RBA)” value was 5. Moreover, the “prost. ER/uterus ER” value in the experiment on Rat prost. ER (ratio of binding to prostate and uterus receptor) is recorded as 50. Besides, the “hERβ RBA*” value in the experiment with hERβ [5] was 17.

Take `O=c1c(-c2ccc(O)cc2)coc2cc(O)cc(O)c12` [Geni-steine, Genisteine]: the “ERβ/ ER” value with hERβ [3] amounted to 7.

For `C[C@]12CC[C@@H]3c4ccc(O)cc4CC[C@H]3[C@@H]1C[C@@H](O)[C@@H]2O` [Estriol], in the experiment on hERβ [3], the “ERβ/ ER” value came out at 1.5. The “hERβ RBA*” value with hERβ [5] (relative binding affinity, estradiol = 100) is 21.

On to `C[C@]12CC[C@@H]3c4ccc(O)cc4CC[C@H]3[C@@H]1C[C@@H](O)C2=O` [16α-hydroxyestrone], for which, in the experiment on hERβ [3] (some studies), the “binding to the human estrogen receptor β (ERβ) compared with the human estrogen receptor α (ERα)” value is given as “three times better”. Moreover, in the experiment on Rat prost. ER (some studies), the “RBA value on the rat prostate estrogen receptor compared with the RBA value on the rat uterus estrogen receptor” value is listed as “five times better”.

Turning to `C[C@@]12CC[C@H]3c4ccc(O)cc4CC[C@H]3[C@H]1CC[C@H]2O` (single isomer, unassigned) [ent-8α-estradiol], the antilipemic activity result in experiment [6] is listed as “antilipemic activity in the case of no feminization”.
